ChEMBL document CHEMBL5233233, “Histone deacetylase 3 (HDAC3) inhibitors as anticancer agents: A review” (Eur J Med Chem, 2020)
Blank lines part the entries; values can stand above or below the compound they belong to.

Experiments:
Histone deacetylase 3 [1] = molecular target: T1, Histone deacetylase 3 (Homo sapiens, UniProt O15379); assay: Inhibition of HDAC3 (unknown origin) using acetylated 7-amino-4-methylcoumarin (AMC) as peptide substrate measured after 20 mins by fluorescence based analysis
T1 sequence (O15379 whole entry): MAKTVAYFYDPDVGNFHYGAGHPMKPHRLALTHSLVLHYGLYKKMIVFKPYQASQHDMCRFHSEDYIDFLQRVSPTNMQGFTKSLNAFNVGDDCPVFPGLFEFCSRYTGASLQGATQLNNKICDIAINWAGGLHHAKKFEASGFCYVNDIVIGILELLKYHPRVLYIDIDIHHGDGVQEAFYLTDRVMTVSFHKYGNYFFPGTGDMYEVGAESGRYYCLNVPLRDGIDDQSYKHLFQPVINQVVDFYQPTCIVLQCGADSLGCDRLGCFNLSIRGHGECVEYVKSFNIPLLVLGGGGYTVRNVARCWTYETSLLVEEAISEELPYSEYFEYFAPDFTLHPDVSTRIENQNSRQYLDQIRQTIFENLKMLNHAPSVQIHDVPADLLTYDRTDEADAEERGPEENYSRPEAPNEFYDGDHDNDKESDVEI

Histone deacetylase 1 [2] = molecular target: T2, Histone deacetylase 1 (Homo sapiens, UniProt Q13547); assay: Inhibition of HDAC1 (unknown origin) using acetylated 7-amino-4-methylcoumarin (AMC) as peptide substrate measured after 20 mins by fluorescence based analysis
T2 sequence (Q13547 whole entry): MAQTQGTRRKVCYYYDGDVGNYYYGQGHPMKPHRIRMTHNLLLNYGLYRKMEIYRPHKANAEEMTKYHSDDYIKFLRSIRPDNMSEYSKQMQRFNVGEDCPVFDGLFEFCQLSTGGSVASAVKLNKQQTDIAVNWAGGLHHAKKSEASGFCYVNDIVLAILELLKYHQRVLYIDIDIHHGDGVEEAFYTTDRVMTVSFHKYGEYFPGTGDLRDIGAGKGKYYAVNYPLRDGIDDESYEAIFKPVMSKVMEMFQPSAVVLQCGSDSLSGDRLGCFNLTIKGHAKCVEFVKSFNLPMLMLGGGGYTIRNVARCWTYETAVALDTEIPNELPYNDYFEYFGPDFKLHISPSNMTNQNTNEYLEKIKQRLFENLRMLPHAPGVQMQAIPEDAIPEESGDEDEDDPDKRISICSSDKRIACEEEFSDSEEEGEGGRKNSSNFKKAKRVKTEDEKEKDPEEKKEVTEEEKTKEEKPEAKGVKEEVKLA

Histone deacetylase 2 [3] = molecular target: T3, Histone deacetylase 2 (Homo sapiens, UniProt Q92769); assay: Inhibition of HDAC2 (unknown origin) using acetylated 7-amino-4-methylcoumarin (AMC) as peptide substrate measured after 20 mins by fluorescence based analysis
T3 sequence (Q92769 whole entry): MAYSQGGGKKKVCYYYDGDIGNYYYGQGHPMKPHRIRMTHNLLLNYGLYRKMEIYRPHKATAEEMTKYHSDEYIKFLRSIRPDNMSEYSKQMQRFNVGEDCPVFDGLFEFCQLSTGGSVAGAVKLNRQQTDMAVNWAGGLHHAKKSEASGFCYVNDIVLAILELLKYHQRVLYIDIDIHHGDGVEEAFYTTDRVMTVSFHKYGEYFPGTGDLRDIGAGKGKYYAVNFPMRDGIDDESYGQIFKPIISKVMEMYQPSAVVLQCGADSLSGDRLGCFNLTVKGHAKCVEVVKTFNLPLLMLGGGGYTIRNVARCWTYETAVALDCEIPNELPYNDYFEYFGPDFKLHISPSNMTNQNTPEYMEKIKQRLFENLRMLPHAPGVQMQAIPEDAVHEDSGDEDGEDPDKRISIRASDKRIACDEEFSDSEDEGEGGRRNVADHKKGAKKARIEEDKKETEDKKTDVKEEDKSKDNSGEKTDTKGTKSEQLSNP

Histone deacetylase 3 [4] = molecular target: T1, Histone deacetylase 3; assay: Inhibition of human HDAC3 using human HeLa cell nuclear extract at 1 uM measured after 60 mins by fluorescence assay; assay type: subcellular, Nucleus
Histone deacetylase 2 [5] = molecular target: T3, Histone deacetylase 2; assay: Inhibition of human HDAC2 using human HeLa cell nuclear extract at 1 uM measured after 60 mins by fluorescence assay; assay type: subcellular, Nucleus
Histone deacetylase 1 [6] = molecular target: T2, Histone deacetylase 1; assay: Inhibition of human HDAC1 using human HeLa cell nuclear extract at 1 uM measured after 60 mins by fluorescence assay; assay type: subcellular, Nucleus
Histone deacetylase 2 [7] = molecular target: T3, Histone deacetylase 2; assay: Inhibition of human recombinant HDAC2 expressed in baculovirus by using Boc-L-Lys(Ac)-AMC as substrate measured after 24 hrs by fluorescence based analysis
Histone deacetylase 8 [8] = molecular target: T4, Histone deacetylase 8 (Homo sapiens, UniProt Q9BY41); assay: Inhibition of human recombinant HDAC8 expressed in Escherichia coli BL21 (DE3) cells by using Boc-L-Lys(Ac)-AMC as substrate measured after 24 hrs by fluorescence based analysis
T4 sequence (Q9BY41 whole entry): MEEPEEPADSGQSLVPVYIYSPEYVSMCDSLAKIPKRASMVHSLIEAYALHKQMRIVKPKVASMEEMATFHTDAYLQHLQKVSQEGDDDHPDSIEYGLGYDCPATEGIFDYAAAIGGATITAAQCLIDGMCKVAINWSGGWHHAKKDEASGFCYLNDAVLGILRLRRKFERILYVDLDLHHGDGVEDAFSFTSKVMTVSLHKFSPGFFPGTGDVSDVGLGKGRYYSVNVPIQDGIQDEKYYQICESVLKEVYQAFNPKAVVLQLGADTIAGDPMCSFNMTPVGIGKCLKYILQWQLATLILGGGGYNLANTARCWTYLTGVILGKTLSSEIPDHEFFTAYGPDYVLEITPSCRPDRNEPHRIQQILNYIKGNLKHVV

Histone deacetylase 1 [9] = molecular target: T2, Histone deacetylase 1; assay: Inhibition of human recombinant HDAC1 expressed in baculovirus by using Boc-L-Lys(Ac)-AMC as substrate measured after 24 hrs by fluorescence based analysis
Histone deacetylase 3 [10] = molecular target: T1, Histone deacetylase 3; assay: Inhibition of human recombinant HDAC3 expressed in baculovirus by using Boc-L-Lys(Ac)-AMC as substrate measured after 24 hrs by fluorescence based analysis
Histone deacetylase = assay: Inhibition of human HDAC using human HeLa cell nuclear extract measured after 60 mins by fluorescence assay; assay type: subcellular, Nucleus
Histone deacetylase 3 [11] = molecular target: T1, Histone deacetylase 3; assay: Inhibition of human HDAC3 using fluorogenic as substrate measured after 30 mins by fluorescence based analysis
Histone deacetylase 3 [12] = molecular target: T1, Histone deacetylase 3; assay: Inhibition of HDAC3 (unknown origin)
[13] = molecular target: T5, Protein deacetylase HDAC6 (Homo sapiens, UniProt Q9UBN7); assay: Inhibition of HDAC6 (unknown origin) using Boc-Lys (Ac)-AMC as substrate measured after 30 mins by fluorescence based analysis
T5 sequence (Q9UBN7 whole entry): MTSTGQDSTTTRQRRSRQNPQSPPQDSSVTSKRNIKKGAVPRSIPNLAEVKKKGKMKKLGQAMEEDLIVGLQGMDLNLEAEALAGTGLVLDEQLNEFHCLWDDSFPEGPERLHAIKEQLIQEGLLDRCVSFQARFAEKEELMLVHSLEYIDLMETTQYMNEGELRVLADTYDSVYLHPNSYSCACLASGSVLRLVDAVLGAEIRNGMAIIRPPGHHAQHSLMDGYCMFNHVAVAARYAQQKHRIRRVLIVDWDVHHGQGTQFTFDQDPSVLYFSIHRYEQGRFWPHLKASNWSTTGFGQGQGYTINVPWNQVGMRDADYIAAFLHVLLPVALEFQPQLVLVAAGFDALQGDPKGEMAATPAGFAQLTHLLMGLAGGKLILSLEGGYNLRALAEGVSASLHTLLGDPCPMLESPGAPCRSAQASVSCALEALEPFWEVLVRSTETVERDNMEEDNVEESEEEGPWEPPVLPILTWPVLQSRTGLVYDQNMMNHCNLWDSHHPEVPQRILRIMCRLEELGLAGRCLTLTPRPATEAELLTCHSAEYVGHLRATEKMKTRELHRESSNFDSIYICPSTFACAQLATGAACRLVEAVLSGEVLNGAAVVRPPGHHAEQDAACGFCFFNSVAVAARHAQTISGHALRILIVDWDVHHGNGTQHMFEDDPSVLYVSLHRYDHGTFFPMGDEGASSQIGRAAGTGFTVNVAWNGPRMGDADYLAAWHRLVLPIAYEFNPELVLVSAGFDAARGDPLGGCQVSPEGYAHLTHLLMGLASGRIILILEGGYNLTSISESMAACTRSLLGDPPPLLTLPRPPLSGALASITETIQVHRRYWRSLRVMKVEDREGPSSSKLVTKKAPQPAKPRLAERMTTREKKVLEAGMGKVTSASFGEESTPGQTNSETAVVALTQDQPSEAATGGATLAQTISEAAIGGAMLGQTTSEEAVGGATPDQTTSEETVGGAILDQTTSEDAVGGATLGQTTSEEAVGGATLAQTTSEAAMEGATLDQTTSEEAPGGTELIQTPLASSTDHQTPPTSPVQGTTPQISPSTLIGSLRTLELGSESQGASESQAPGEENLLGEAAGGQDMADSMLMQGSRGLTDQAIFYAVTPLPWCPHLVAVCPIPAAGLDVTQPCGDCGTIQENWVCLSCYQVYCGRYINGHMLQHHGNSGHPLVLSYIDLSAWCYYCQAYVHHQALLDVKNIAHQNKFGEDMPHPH

Histone deacetylase 3 [14] = molecular target: T1, Histone deacetylase 3; assay: Inhibition of HDAC3 (unknown origin) using Boc-Lys (Ac)-AMC as substrate measured after 30 mins by fluorescence based analysis
Histone deacetylase 1 [15] = molecular target: T2, Histone deacetylase 1; assay: Inhibition of HDAC1 (unknown origin) using Boc-Lys (Ac)-AMC as substrate measured after 30 mins by fluorescence based analysis
Histone deacetylase 1 [16] = molecular target: T2, Histone deacetylase 1; assay: Inhibition of human HDAC1 using fluorogenic as substrate measured after 30 mins by fluorescence based analysis
Histone deacetylase 8 [17] = molecular target: T4, Histone deacetylase 8; assay: Inhibition of HDAC8 (unknown origin)
Histone deacetylase 1 [18] = molecular target: T2, Histone deacetylase 1; assay: Inhibition of HDAC1 (unknown origin)
Histone deacetylase 2 [19] = molecular target: T3, Histone deacetylase 2; assay: Inhibition of HDAC2 (unknown origin)

IC50 (Histone deacetylase 3 [1]): > 50000 nM
IC50 (Histone deacetylase 1 [2]): > 50000 nM
IC50 (Histone deacetylase 2 [3]): > 50000 nM
SMILES: O=C(NNCCCC1CCCC1)c1ccc(Br)cc1

IC50 (Histone deacetylase 3 [4]): 17 nM
IC50 (Histone deacetylase 2 [5]): 946 nM
IC50 (Histone deacetylase 1 [6]): 259 nM
SMILES: Cc1noc(C)c1-c1ccc2c(c1)c(CCc1ccc(F)cc1)cn2CCCCCC(=O)NO

IC50 (Histone deacetylase 2 [7]): 1800 nM
IC50 (Histone deacetylase 8 [8]): 1800 nM
IC50 (Histone deacetylase 1 [9]): 210 nM
IC50 (Histone deacetylase 3 [10]): 180 nM
SMILES: COc1ccc(CNCCCCCCC(=O)NO)cc1OC

IC50 (Histone deacetylase 3 [4]): 23 nM
IC50 (Histone deacetylase 2 [5]): 118 nM
IC50 (Histone deacetylase 1 [6]): 179 nM
SMILES: Cc1noc(C)c1-c1ccc2c(c1)c(Cc1ccccc1)cn2CCCCCCC(=O)NO

IC50 (Histone deacetylase 2 [7]): 790 nM
IC50 (Histone deacetylase 8 [8]): 2800 nM
IC50 (Histone deacetylase 1 [9]): 140 nM
IC50 (Histone deacetylase 3 [10]): 190 nM
SMILES: Cc1cc(CNCCCCCCC(=O)NO)ccc1F

IC50 (Histone deacetylase): 14.3 nM
IC50 (Histone deacetylase 3 [11]): 16.8 nM
SMILES: O=C(NO)c1ccc(NC(=O)[C@@H](NC(=O)c2ccc3ccccc3c2)c2ccccc2)cc1

IC50 (Histone deacetylase 3 [4]): 39 nM
IC50 (Histone deacetylase 2 [5]): 517 nM
IC50 (Histone deacetylase 1 [6]): 341 nM
SMILES: Cc1noc(C)c1-c1ccc2c(c1)c(Cc1ccc(F)cc1)cn2CCCCCC(=O)NO

IC50 (Histone deacetylase 2 [7]): 4200 nM
IC50 (Histone deacetylase 8 [8]): 5400 nM
IC50 (Histone deacetylase 1 [9]): 1100 nM
IC50 (Histone deacetylase 3 [10]): 950 nM
SMILES: O=C(CCCCCCN(Cc1ccc2ccccc2c1)Cc1ccc2ccccc2c1)NO

IC50 (Histone deacetylase 3 [12]): 0.6 nM
SMILES: CCC(=O)CCCCC[C@H](NC(=O)C(C)(C)N(C)C)c1ncc(-c2cc3ccccc3nc2OC)o1

IC50 [13]: 17 nM
IC50 (Histone deacetylase 3 [14]): 125 nM
IC50 (Histone deacetylase 1 [15]): 32 nM
SMILES: COC(=O)/C=C/c1ccc(OCCNc2cc3c([nH]c4ccccc43)c(-c3ccc(OC)cc3)n2)c(OC)c1

IC50 (Histone deacetylase): 9.7 nM
IC50 (Histone deacetylase 1 [16]): 24.7 nM
IC50 (Histone deacetylase 3 [11]): 24.4 nM
SMILES: CN(C)c1cccc2c(S(=O)(=O)N[C@H](C(=O)Nc3ccc(C(=O)NO)cc3)c3ccccc3)cccc12

IC50 (Histone deacetylase 3 [4]): 13 nM
IC50 (Histone deacetylase 2 [5]): 79 nM
IC50 (Histone deacetylase 1 [6]): 31 nM
SMILES: Cc1noc(C)c1-c1ccc2c(c1)c(Cc1cccc(C(F)(F)F)c1)cn2CCCCCCC(=O)NO

IC50 (Histone deacetylase 3 [4]): 24 nM
IC50 (Histone deacetylase 2 [5]): 127 nM
IC50 (Histone deacetylase 1 [6]): 253 nM
SMILES: Cc1cccc(Cc2cn(CCCCCCC(=O)NO)c3ccc(-c4c(C)noc4C)cc23)c1

IC50 (Histone deacetylase 3 [12]): 12 nM
IC50 (Histone deacetylase 8 [17]): 4100 nM
IC50 (Histone deacetylase 1 [18]): 930 nM
IC50 (Histone deacetylase 2 [19]): 85 nM
SMILES: Nc1ccccc1NC(=O)c1ccc(CNc2nc(-c3ccccc3)cs2)cc1

IC50 (Histone deacetylase 2 [7]): 260 nM
IC50 (Histone deacetylase 8 [8]): 620 nM
IC50 (Histone deacetylase 1 [9]): 61 nM
IC50 (Histone deacetylase 3 [10]): 25 nM
SMILES: O=C(CCCCCCNCc1cc2ccccc2[nH]1)NO

IC50 (Histone deacetylase 3 [12]): 7 nM
SMILES: CCC(=O)CCCCC[C@H](NC(=O)N1CCOCC1)c1ncc(-c2cc3ccccc3nc2OC)o1

IC50 (Histone deacetylase 1 [18]): > 100000 nM
IC50 (Histone deacetylase 2 [19]): > 19 nM
SMILES: Nc1ccccc1NC(=O)c1ccc(-c2cn(CCc3ccsc3)nn2)cc1

IC50 (Histone deacetylase 2 [19]): > 100 nM
SMILES: Nc1ccccc1NC(=O)c1ccc(-c2cn(CCc3cccc([N+](=O)[O-])c3)nn2)s1

IC50 (Histone deacetylase 2 [7]): 1500 nM
IC50 (Histone deacetylase 8 [8]): 1700 nM
IC50 (Histone deacetylase 1 [9]): 220 nM
IC50 (Histone deacetylase 3 [10]): 240 nM
SMILES: O=C(CCCCCCNCc1ccc(F)cc1)NO
